Reference: patent US10568918B2, “Composition comprising chlorella extract for preventing or treating liver disease” (GANGNEUNG-WONGJU NATIONAL UNIVERSITY INDUSTRY ACADEMY …, priority 2011, dated 2020)
Where “and” joins values, the source holds several entries; their conditions need not be identical. Identical values can stand only once.

Experiments:
[1] = system: liver injury-induced animal models; test: SOD, CAT, GPx, ADH and ALDH activities in liver cytosol of ethanol liver-injured animal model; assay type: in vivo, SD rats; conditions: 10 mg/kg in feed, 10 days
Method: After inspection and adaptation for 1 week, healthy animals without weight loss were selected and used for the test. Test animals were bred under a condition of temperature: 23±3, relative humidity: 50±10%, air change rate: 10-15 times/hour, lighting time: 12 hours (08:00-20:00) and luminous intensity: 150-300 Lux. During adaptation period of 1 week, the test animals were freely fed with solid feed for test animal (Superfeed Co., Ltd., Wonju, South Korea) and drinking water. After the adaptation period of 1 week, healthy animals were selected, and divided to 5 groups by randomized block design. […] Test feeds were prepared by mixing each test compounds to the feed to the daily feeding amount of 50 or 100 mg per 1 kg of test animal weight as described above, and fed. […] The feed intake was measured every two days, and body weight was measured every week from the day of starting the oral administration of ethanol (0 day) to the final day of the experiment.
1 g liver tissue was homogenized with 0.25 M sucrose (pH 7.0). […] The activities of superoxide dismutase (SOD), catalase (CAT) and glutathione peroxidase (GPx) were measured using a kit of Cayman chemical company (Ann Arbor, Mich., USA). The activity of alcohol dehydrogenase (ADH) was measured by adding 0.2 M ethanol 10 μl, 0.05 M semicarbazide HCl 10 μl and 0.1 M NAD (in 0.01 M HCl) 10 μl to 0.1 M Tris-HCl buffer (pH 8.5) 160 μl followed by adding the cytosolic zymogen 10 μl thereto at 340 nm. […] The activity of acetaldehyde dehydrogenase (ALDH) was measured by adding 1 M KCl 10 μl, 0.1 M pyrazole 10 μl, 1 M 2-mercaptoethanol 10 μl, 0.1 M propione aldehyde 10 μl and 0.1 M NAD (in 0.01 M HCl) 10 μl to 0.2 M Tris-HCl buffer (pH 8.3) 150 μl followed by adding the cytosolic zymogen 10 μl at 340 nm, and the enzyme protein assay was conducted by a method of Lowry et al. (Lowry O H et al., 1957, J Biol Chem 193: 265-276).

[2] = system: liver injury-induced animal models; test: Contents of triglyceride, total cholesterol and HDL-cholesterol in blood serum of ethanol liver-injured animal model; assay type: in vivo, SD rats; conditions: EtOH +, 10 mg/kg, mean ± SEM
Method: The chlorella ethanol extract (CH) was used. The CH was dissolved in ethanol, and mixed with AlN-76 diet to be a daily intake of 50 mg or 100 mg per kg of a test animal weight and supplied to the animal. Specific pathogen free male SD rats of 5-week-old were purchased from Orient Bio Inc. (Seongnam, South Korea). After inspection and adaptation for 1 week, healthy animals without weight loss were selected and used for the test. Test animals were bred under a condition of temperature: 23±3, relative humidity: 50±10%, air change rate: 10-15 times/hour, lighting time: 12 hours (08:00-20:00) and luminous intensity: 150-300 Lux. During adaptation period of 1 week, the test animals were freely fed with solid feed for test animal (Superfeed Co., Ltd., Wonju, South Korea) and drinking water. After the adaptation period of 1 week, healthy animals were selected, and divided to 5 groups by randomized block design. Namely, those were divided into a control group not treated with ethanol and the test material, a group orally administered with ethanol, a group orally administered with ethanol and fed with CH 50 mg/kg, a group orally administered with ethanol and fed with CH 100 mg/kg and a group orally administered with ethanol and fed with sulforaphane 10 mg/kg. The primary feed used in this experiment, AlN-76 was purchased from Research Diets, Inc. (New Brunswick, N.J., USA), and its composition is listed in Table 1. Test feeds were prepared by mixing each test compounds to the feed to the daily feeding amount of 50 or 100 mg per 1 kg of test animal weight as described above, and fed. […] The feeds containing the test compounds were fed for 10 days after 17th day of the ethanol administration, and the ethanol was orally administered together with the feed continuously. During the test period, drinking water was freely supplied. The feed intake was measured every two days, and body weight was measured every week from the day of starting the oral administration of ethanol (0 day) to the final day of the experiment. […]

[3] = system: liver injury-induced animal models; test: ALT, AST, γ-GT and LDH contents in blood serum of ethanol liver-injured animal model; assay type: in vivo, SD rats; conditions: 10 mg/kg in feed, 10 days
Method: The chlorella ethanol extract (CH) was used. The CH was dissolved in ethanol, and mixed with AlN-76 diet to be a daily intake of 50 mg or 100 mg per kg of a test animal weight and supplied to the animal. Specific pathogen free male SD rats of 5-week-old were purchased from Orient Bio Inc. (Seongnam, South Korea). After inspection and adaptation for 1 week, healthy animals without weight loss were selected and used for the test. Test animals were bred under a condition of temperature: 23±3, relative humidity: 50±10%, air change rate: 10-15 times/hour, lighting time: 12 hours (08:00-20:00) and luminous intensity: 150-300 Lux. During adaptation period of 1 week, the test animals were freely fed with solid feed for test animal (Superfeed Co., Ltd., Wonju, South Korea) and drinking water. […] The feed intake was measured every two days, and body weight was measured every week from the day of starting the oral administration of ethanol (0 day) to the final day of the experiment. […] To analyze contents of ALT, AST, γ-GT and LDH in a blood serum isolated from the blood collected on the day of the autopsy, alanine aminotransferase (ALT), aspartate aminotransferase (AST), gamma-glutamyl transferase (γ-GT) and lactic dehydrogenase (LDH) were analyzed using a blood biochemistry analyzer (KoneLab 20, Thermo Fisher Scientific, Waltham, […]).

[4] = system: liver injury-induced animal models; test: Contents of total lipid, triglyceride and total cholesterol in liver tissue of ethanol liver-injured animal model; assay type: in vivo, SD rats; conditions: 10 mg/kg
Method: Specific pathogen free male SD rats of 5-week-old were purchased from Orient Bio Inc. (Seongnam, South Korea). After inspection and adaptation for 1 week, healthy animals without weight loss were selected and used for the test. Test animals were bred under a condition of temperature: 23±3, relative humidity: 50±10%, air change rate: 10-15 times/hour, lighting time: 12 hours (08:00-20:00) and luminous intensity: 150-300 Lux. During adaptation period of 1 week, the test animals were freely fed with solid feed for test animal (Superfeed Co., Ltd., Wonju, South Korea) and drinking water. After the adaptation period of 1 week, healthy animals were selected, and divided to 5 groups by randomized block design. […] Test feeds were prepared by mixing each test compounds to the feed to the daily feeding amount of 50 or 100 mg per 1 kg of test animal weight as described above, and fed. In order to induce the fatty liver by ethanol, 20% ethyl alcohol 5 g per kg (body weight) was orally administered twice a day (morning and afternoon) for 16 days. The feeds containing the test compounds were fed for 10 days after 17th day of the ethanol administration, and the ethanol was orally administered together with the feed continuously. During the test period, drinking water was freely supplied. The feed intake was measured every two days, and body weight was measured every week from the day of starting the oral administration of ethanol (0 day) to the final day of the experiment.
Total lipid content in the liver tissue was analyzed by homogenizing 1 g liver tissue in a saline 3 ml followed by homogenizing again with CM solution (Chloroform:Methanol=2:1) 9 ml. The homogenate was centrifuged at 3,000 rpm for 10 min, and the lower layer was collected and evaporated followed by measuring the total lipid content using a precision scale. The measured total lipid was dissolved in isopropanol, and the triglyceride content and the total choresterol content were measured by a quantitative analysis kit using an enzyme method (Asan Pharm. Co., Ltd., Hwaseong, South Korea).

quinone reductase = test: Quinone reductase activity induction in Hepa1c1c7 liver cancer cells; assay type: cell-based, white rat; conditions: sulforaphane at 5 μM, 5 × 10^3 cell/wells
Method: For the ethanol extract and the ingredients of the isolated fractions, the quinone reductase activity induction was analyzed. In order to measure the quinone reductase activity induction effect of the fractions obtained from the chlorella, the experiment was conducted using a liver cancer cell line (Hepa1c1c7) of a white rat.
First of all, a-MEM (minimum essential medium)/10% FBS (fetal bovine serum) solution was mixed with a liver cell culture solution to make the cell number of 1×10^5 cells/Ml, and the resulting solution 100 μl was added to a 96-well plate followed by incubating for 24 hours under a condition of 5% CO2 and 37° C. […]
The protein solution 50 μl and reaction solution A (49 Ml 25 mM Tris buffer, 34 mg BSA, 0.34 Ml 1.5% tween-20 solution, 0.34 Ml co-enzyme solution, 100 unit glucose-6-phosphate dehydrogenase, 15 mg MTT, 50 μl 50 mM menadione) 200 μl were mixed together, and the absorbance increasing rate was measure at 610 nm using a microplate reader. The protein amount was measured at 595 nm using Bradford solution. […] The quinone reductase activity of the extract and the fraction was expressed as CD (the concentration of the sample where the quinone reductase activity of the sample-treated cell becomes twice).

[5] = system: liver injury-induced animal models; test: Content of lipid peroxide in liver microsome of ethanol liver-injured animal model; assay type: in vivo, SD rats; conditions: EtOH +, 10 mg/kg, mean ± SEM
Method: 1 g Liver tissue was homogenized in 0.25 M sucrose (pH 7.0). […] The content of the lipid peroxide was measured by a lipid peroxide measuring kit (BioAssay Systems, Hayward, Calif., USA), and the protein quantification was conducted by a method of Lowry et al. (Lowry O H et al., 1957, J Biol Chem 193: 265-276).

[6] = did not show the significant difference

C[S+]([O-])CCCCN=C=S (centres unmarked) [Sulforaphane]
liver cytosol SOD activity vs ethanol administration group [1]: increased | liver cytosol CAT activity vs ethanol administration group [1, 6]: increased | liver cytosol GPx activity vs group orally administered with ethanol [1, 6]: increased | HDL-cholesterol [2]: 33.39 mg/dL | Total cholesterol [2]: 94.25 mg/dL | Triglyceride [2]: 126.11 mg/dL | serum γ-GT vs group orally administered with ethanol only [3]: did not show the significant difference | serum LDH content vs group orally administered with ethanol ([3]; with the significant difference): decreased | total liver cholesterol contents vs group orally administered with ethanol ([4]; showed the significant difference): decreased | Total cholesterol (mg/g liver) ([4]; EtOH +, mean ± SEM): 4.39 mg/g liver | Total lipid (mg/g liver) ([4]; EtOH +, mean ± SEM): 48.26 mg/g liver | Triglyceride (mg/g liver) ([4]; EtOH +, mean ± SEM): 13.28 mg/g liver | CD (concentration of the sample where the quinone reductase activity of the sample-treated cell becomes twice) (quinone reductase): 1.94 µg/mL and 2.48 µg/mL and 2.07 µg/mL | Lipid peroxide (μM/mg protein) [5]: 2.07 μM/mg protein
